US10485846B2, “Collagenase-derived peptides promote tissue regeneration and wound healing” (Tufts University, priority 2014, dated 2019)

Columns and labels:
[1] = system: cranial cutaneous wounds; test: Cranial cutaneous excisional wound healing in cyclophosphamide-treated mice (impaired healing model); format: in vivo, Balb/c mice; conditions: peptide in CMC applied daily days 1-5, day 6 post-injury; vs untreated control or collagenase (FIGS. 7-8)
Description: Balb/c mice were pre-treated with cyclophosphamide at 150 mg/kg 3 days prior to injury and with 100 mg/kg cyclophosphamide 1 day before injury. Cranial cutaneous wounds were created using 4 mm punch biopsy tool and immediately covered with adherent transparent dressing (TEGADERM™). The peptides were prepared fresh daily and injected under the dressing on days 1-5 post injury. On day 6 after wounding the animals were sacrificed according to Division of Laboratory Animal Medicine (DLAM) approved procedures. Wounds together with surrounding healthy tissues were excised, cut in half along the midline and either fixed in 4% phosphate buffered formaldehyde or frozen in OCT for further processing. […]
Wounds were created, treated as described in FIG. 6 and scored in a blind manner according to the grading described in Table 2. * indicates statistical significance of findings (p<0.05).
Wounds were created and treated as described in FIG. 1. Wound epithelialization was measured at day 6 post wounding. ** indicate statistical significance of findings (p<0.05). […]
Following cyclophosphamide treatment, animals were injured and then wounds treated/covered. Test entities were coded so that the nature of the experiment was blinded to the investigator; and, each specimen was evaluated and scored blindly according to the wound healing system shown in Table 2, prior to unmasking the experimental code. […]

[2] = system: adult human keratinocytes; test: Scratch wound closure / post-injury migration of keratinocyte monolayer; format: cell-based; conditions: 10 nM peptide, monitored 0, 1, 3 and 5 hours post-injury (FIG. 5)
Description: Adult human keratinocytes were plated into glass-bottom well plates at high density. Scratch wounds were made in the cell monolayer 24 h post-plating. The peptides dissolved in keratinocyte growth media (10 nM) were applied immediately after wounding. Wound closure was monitored at 0, 1, 3 and 5 hours post-injury. Dashed line outlines the wounds. Representative images of wounds treated with TSN2 and TSN6 are shown.
Human epidermis-derived keratinocytes were plated at a post-confluent density prior to mechanical injury in the presence or absence of bioactive wound healing peptides or control entities.

[3] = system: human microvascular endothelial cells; test: In vitro angiogenesis / tube formation on growth factor-reduced Matrigel; format: cell-based; conditions: 100 nM peptide in Matrigel and media (FIG. 4)
Description: ECM-derived peptides were dissolved in growth factor-reduced Matrigel at 100 nM, the matrix was allowed to polymerize, human microvascular endothelial cells were plated either in control low serum containing media or media containing 100 nM peptides. Representative images of cells treated with endothelial ECM-derived peptides are shown.
Function-specific domains present within TSN1/2 and the newly-engineered “combinatorial” peptides present within TSN 10 are able to promote in vitro angiogenesis. TSN peptides promote morphogenesis and angiogenic activation by stimulating migration, proliferation and tube formation; peptide-stimulated endothelial tubes are more numerous, of greater length, having more branch points then control treated endothelial cell cultures.

[4] = system: human microvascular endothelial cells; test: Human microvascular endothelial cell proliferation (coulter counter cell count); format: cell-based; conditions: for endothelial cell proliferation relative to control: 100 nM peptides every other day, counted day 5 post-plating (FIG. 2); for endothelial growth-promoting activity compared with fibroblast growth factor 2 (FGF2): FIG. 2
Description: Human microvascular endothelial cells were plated at low density in multi-well plates and treated with 100 nM peptides every other day. At day 5 post-plating the cells were counted using a coulter counter. Cell proliferation relative to control is shown. *statistical significance (p<0.05).
(§1) In our efforts aimed at characterizing the growth-promoting, migration-enhancing and angiogenesis-inducing activities embodied in SANTYL® collagenase Ointment and in an effort focused on contrasting the efficacy of collagenase vs. the newly-discovered SANTYL® collagenase API-derived bioactive wound healing peptide(s), we continue to perform a battery of pre-clinical tests and trials using the well-established models of injury and repair developed, here, at Tufts University School of Medicine and the Center for Innovations in Wound Healing Research. To these ends, we took advantage of the 2D and 3D injury/repair models developed to quantify cellular responses to injury. […] This is especially noteworthy since these peptides not only promote vascular endothelial growth but, adult human keratinocyte growth.

[5] = system: adult human keratinocytes; test: Adult human keratinocyte proliferation (coulter counter cell count); format: cell-based; conditions: FIG. 3B, PK vs. peptides
Description: Adult human keratinocytes were plated at low density in multi-well plates and treated with 10 nM peptides (FIG. 3A) or 1-100 nM peptides (FIG. 3B) every other day. At day 7 post-plating the cells were counted using a coulter counter. Cell proliferation relative to control (FIG. 3A) or absolute cell number grown (FIG. 3B) are shown. *statistical significance (p<0.05).
as §1

Sequence | wound healing in vivo (wound score, Table 2 grading; wound closure) [1] | keratinocyte migration in response to scratch injury (wound closure) [2] | in vitro angiogenesis (tube formation) [3] | endothelial cell proliferation relative to control [4] | endothelial growth-promoting activity compared with fibroblast growth factor 2 (FGF2) [4] | keratinocyte growth-promoting activity compared with PK SANTYL collagenase API [5]
HSPDIQLQKGLTFEPIQIK (listed as Homo sapiens) [TSN6, 19 aa peptide; origin Multimerin-1 Coiled coil domain] | markedly stimulated to heal wounds | marked migration-enhancing activity |  |  |  | 
MENAELDVPIQSVFTR (listed as Homo sapiens) [TSN2, 16 aa peptide; origin Thrombospondin-1 N-terminal domain] |  | marked migration-enhancing activity | angiogenesis-inducing activity | stimulate human dermally-derived microvascular endothelial cell growth in vitro | exceed the growth-promoting activity embodied in fibroblast growth factor 2 (FGF2) | completely accounting for the keratinocyte growth-promoting activity present within PK SANTYL collagenase API
NFQGVQNRFVFGTP (listed as Homo sapiens) [TSN1, 14 aa peptide; origin Thrombospondin-1 Laminin G-like domain] |  |  | markedly promoted in vitro angiogenesis | stimulate human dermally-derived microvascular endothelial cell growth in vitro | exceed the growth-promoting activity embodied in fibroblast growth factor 2 (FGF2) | completely accounting for the keratinocyte growth-promoting activity present within PK SANTYL collagenase API
RPGPSPEGTGQSYNYR (listed as Homo sapiens) [TSN8, 16 aa peptide] |  |  | markedly promoted in vitro angiogenesis |  |  | 
TGQSYNQYSQRPYLGVYVFK (listed as Homo sapiens) [TSN10, 20 aa combinatorial peptide; Combination of Thrombospondin and multimerin peptides] |  |  | markedly promoted in vitro angiogenesis |  |  | completely accounting for the keratinocyte growth-promoting activity present within PK SANTYL collagenase API
